The text below walks through data of patent EP2261259B1, “Immunoassay for N-(3-chlorophenyl)piperazine-based anti-depressants” (Randox Laboratories Ltd., priority 2009, dated 2010).

In brackets after ≈: the same amount, converted by molar mass.

The test system of this assay is antibody of the invention. As to the kind of experiment: Competitive ELISA (antibody-coated microtitre plate, hapten-HRP conjugate, TMB, absorbance at 450 nm). The following applies: for %CR: percentage cross-reactivity based on 100% specificity to nefazodone; for %B/B0: B0 = absorbance at 0 ng/ml; for A450: absorbance at 450 nm; for IC50: standard concentration which produces 50% B/B0. Format: binding, sheep. The protocol: The process of developing an immunoassay is well known to the person skilled in the art. […] The serum from the immunised animal is collected when the antibody titre is sufficiently high. A conjugate is added to a sample containing the target analyte and the raised antibodies, and the conjugate and analyte compete for binding to the antibodies. The process may comprise fixing said serum antibodies to a backing substrate such as a polystyrene solid support or a biochip. The antibodies can be polyclonal or monoclonal. The signal emitted in the immunoassay is proportionate to the amount of conjugate bound to the antibodies which in turn is inversely proportionate to the analyte concentration. The signal can be detected or quantified by comparison with a calibrator.
The resulting immunogens were administered separately to adult sheep on a monthly basis to provide target-specific polyclonal antisera. IgG was extracted from the antisera via Caprylic acid/ammonium sulphate precipitation of immunoglobulin. Microtitre plates (Thermo Scientific, 95029180) were coated with antibody (125µl) in coating buffer (10mM Tris pH 8.5) at 37°C for 2 hours. Antibody was coated at 2.5µg/ml. The plates were then washed. […] The plates were then washed and 125µl of TMB (Randox, 4380-15) was added to each well and left at room temperature for 20mins in the dark. The reaction was stopped using 125µl of 0.2M sulphuric acid. The absorbancies were read at 450nm with an ELISA microplate reader (BIO-TEK Instruments, EL340) and the means calculated. Antibody specificity and sensitivity were then determined
For orientation: An ELISA detects its analyte on a solid surface through an enzyme-linked reagent.

The mark [1] stands for this setting: standard concentration 0.156 ng/ml.
The mark [2] stands for this setting: standard concentration 0.313 ng/ml.
Setting [3] is: standard concentration 0.625 ng/ml.
Where [4] appears, read: standard concentration 1.250 ng/ml.
[5] abbreviates: standard concentration 2.500 ng/ml.
The mark [6] stands for this setting: standard concentration 5.000 ng/ml.
[7] abbreviates: standard concentration 10.000 ng/ml.

`CCc1nn(CCCN2CCN(c3cccc(Cl)c3)CC2)c(=O)n1CCOc1ccccc1` [Nefazodone, 2-{3-[4-(3-chlorophenyl)-1-piperazinyl]propyl}-5-ethyl-4-(2-phenoxyethyl)-1,2,4-triazol-3-one]: the “%CR” value was 100% and the half-inhibitory concentration (IC50) was 3.901 ng/mL (≈ 0.0083 µM). For the same compound, under setting [1], the “%B/B0” value is 91% and the A450 was determined as 1.850. Also, under setting [2], the “%B/B0” value turned out to be 83% and the A450 is given as 1.671. Under setting [3], the “%B/B0” value is 73% and the A450 came to 1.467. In addition, under setting [4], the “%B/B0” value is 58% and the A450 is 1.168. Moreover, under setting [5], the “%B/B0” value is given as 46% and the A450 worked out at 0.923. Also, under setting [6], the “%B/B0” value is 34% and the A450 worked out at 0.683. In addition, under setting [7], the “%B/B0” value came out at 24% and the A450 stood at 0.494.
As for `O=c1n(CCCN2CCN(c3cccc(Cl)c3)CC2)nc2ccccn12` [Trazodone, 2-{3-[4-(3-chlorophenyl)-1-piperazinyl]propyl}-[1,2,4]triazolo[4,3-a]pyridin-3(2H)-one], the “%CR” value turned out to be 733%. Also, under setting [1], the “%B/B0” value stood at 67% and the A450 is given as 1.456. Further, under setting [2], the “%B/B0” value came to 58% and the A450 is reported as 1.271. Also, under setting [3], the “%B/B0” value is reported as 48% and the A450 was found to be 1.041. Under setting [4], the “%B/B0” value is 35% and the A450 is 0.763. Under setting [5], the “%B/B0” value stood at 25% and the A450 was found to be 0.551. Also, under setting [6], the “%B/B0” value worked out at 18% and the A450 was determined as 0.398. Moreover, under setting [7], the “%B/B0” value was 13% and the A450 was 0.287.
In the case of `Clc1cccc(N2CCNCC2)c1` [mCPP, N-(3-chlorophenyl)piperazine], the “%CR” value is on record as 46% and the concentration for half-maximal inhibition (IC50) was 8.476 ng/mL (≈ 0.0431 µM). Under setting [1], the “%B/B0” value is listed as 85% and the A450 is on record as 1.821. Under setting [2], the “%B/B0” value was 79% and the A450 came out at 1.679. Also, under setting [3], the “%B/B0” value is 72% and the A450 came to 1.534. For the same compound, under setting [4], the “%B/B0” value amounted to 65% and the A450 stood at 1.380. Moreover, under setting [5], the “%B/B0” value is 55% and the A450 is given as 1.183. Under setting [6], the “%B/B0” value was 48% and the A450 was 1.027. Under setting [7], the “%B/B0” value is 42% and the A450 was found to be 0.888.

What is called IC50 is the concentration at which inhibition is half-maximal. Low values mean greater potency in that assay, high ones weaker potency in that assay.
